target: T1, human SGLT1 (Homo sapiens, UniProt P13866); assay: Determination of SGLT1 inhibitory activity ([14C]-AMG uptake in CHO cells expressing human SGLT1); assay type: cell-based; settings: CHO cells expressing human SGLT1, [14C]-AMG uptake, 37° C. for 1 hour
T1 construct: expressed in transfected cells; host or cells: CHO cells (Flp-in CHO)
T1 sequence (P13866 1-664): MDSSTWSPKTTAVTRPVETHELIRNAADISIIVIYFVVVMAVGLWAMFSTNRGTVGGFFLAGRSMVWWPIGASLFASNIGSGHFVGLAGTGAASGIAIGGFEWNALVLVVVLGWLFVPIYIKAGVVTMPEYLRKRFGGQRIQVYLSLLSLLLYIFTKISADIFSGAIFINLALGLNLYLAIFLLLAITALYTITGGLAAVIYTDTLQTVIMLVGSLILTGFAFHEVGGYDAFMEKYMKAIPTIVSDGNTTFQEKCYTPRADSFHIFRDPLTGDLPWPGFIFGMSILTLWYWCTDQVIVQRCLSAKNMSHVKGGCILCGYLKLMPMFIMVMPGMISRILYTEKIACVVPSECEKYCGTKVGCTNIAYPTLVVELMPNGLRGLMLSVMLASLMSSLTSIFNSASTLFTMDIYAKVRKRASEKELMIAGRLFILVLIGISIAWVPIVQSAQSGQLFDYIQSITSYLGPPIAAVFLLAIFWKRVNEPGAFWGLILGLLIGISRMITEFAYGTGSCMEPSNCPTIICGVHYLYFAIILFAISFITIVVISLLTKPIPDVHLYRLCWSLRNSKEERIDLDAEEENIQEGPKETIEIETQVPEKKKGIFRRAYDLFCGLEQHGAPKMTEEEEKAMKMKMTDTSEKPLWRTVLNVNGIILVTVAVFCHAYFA
Experimental: Mock-transfected FIP-in CHO cells (3×10^4 cells) and CHO cells expressing human SGLT1 gene were seeded into 96-well plates respectively. The cells were incubated for 12 hours. Each well of the 96-well plates was washed with 150 μL of sodium-free buffer once. To each well was added 50 μL of sodium-containing buffer containing test compounds having different concentrations and 0.5 μm [^14C]-AMG And the mixture in the well was incubated at 37° C. for 1 hour. To each well was added 150 μL of precooled sodium-free buffer to terminate the reaction. The cell pellet was washed with sodium free buffer three times and the residual liquid in well was removed. To each well was added 20 μL of precooled 100 mM NaOH, and the 96-well plates were vibrated at 900 rpm for 5 minutes. Scintillation fluid (80 μL) was added to each well which was then vibrated at 600 rpm for 5 minutes. The amount of 14C-AMG was quantitatively detected using liquid scintillation.

Row | IC50 | Compound
1 | 1.73 nM | Cc1ccc([C@]23OC[C@](C(C)(C)O)(O2)[C@@H](O)[C@H](O)[C@H]3O)cc1Cc1ccc(CCCC(=O)NC(C)(C)C(=O)NCCN2CCCC2)cc1 [Example 1, 2-Methyl-2-[4-[4-[[2-methyl-5-[(1S,2S,3S,4R,5S)-2,3,4-trihydroxy-1-(1-hydroxy-1-methyl-ethyl)-6,8-dioxabicyclo[3.2.1]octan-5-yl]phenyl]methyl]phenyl]butyrylamino]-N-(2-pyrrolidin-1-ylethyl)propionamide]
2 | 1.16 nM | Cc1ccc([C@]23OC[C@](C(C)(C)O)(O2)[C@@H](O)[C@H](O)[C@H]3O)cc1Cc1ccc(CCCC(=O)NC2(C(=O)NCCN3CC[C@@H](F)C3)CCCCC2)cc1 [Example 7, N-[2-[(3R)-3-fluoropyrrolidin-1-yl]ethyl]-1-[4-[4-[[2-methyl-5-[(1S,2S,3S,4R,5S)-2,3,4-trihydroxy-1-(1-hydroxy-1-methyl-ethyl)-6,8-dioxabicyclo[3.2.1]octane-5-yl]phenyl]methyl]phenyl]butyrylamino]cyclohexyl formamide]
3 | 5.75 nM | Cc1ccc([C@]23OC[C@](C(C)(C)O)(O2)[C@@H](O)[C@H](O)[C@H]3O)cc1Cc1ccc(CCCC(=O)N2CCC[C@H]2C(=O)NCCN(C)C)cc1 [Example 11, (2S)—N-(2-Dimethylaminoethyl)-1-[4-[4-[[2-methyl-5-[(1S,2S,3S,4R,5S)-2,3,4-trihydroxy-1-(1-hydroxy-1-methyl-ethyl)-6,8-dioxabicyclo[3.2.1]octan-5-yl]phenyl]methyl]phenyl]butyryl]pyrrolidine-2-carboxamide]
